Holding throughout (type): cell-based
The subject of data set [1] is MCF-7 cells. Briefly: proliferation assay in estrogen-growth-dependent MCF-7 cell line. The following applies: for proliferation effect on MCF-7 cells: 1 nM concentration. As to the method: The MCF-7 cell line was derived from a breast adenocarcinoma and, considering its growth dependency on estrogen, it is a valuable tool for evaluation of estrogenic properties of chemical compounds. Since MCF-7 cells express exclusively ERα, the proliferative effect of tested compounds is mediated mainly by this receptor.
MCF-7 cells were cultivated for 6 days in DMEM medium without phenol red containing 8% charcoal treated fetal calf serum and 2 mM glutamine. During this time the cells stopped proliferating and the medium was supplemented with different concentrations of tested compounds in DMSO. The cells were further cultured in the medium described above in the presence of tested compounds, and after 3 days the medium was changed and the tested compounds in DMSO were added to the medium once again. After another 3 days the amount of viable cells was measured using the kit […]-BLUE Cell Viability Assay (Promega) according to the manufacturer's instructions. The fluorescent measurement was carried out on the combined spectrophotometer ENVISION (PerkinElmer), and the results are shown in FIGS. 8 and 9.

Data set [2] has as its target T1, human ERα (Homo sapiens, UniProt P03372).
T1 construct: expressed in transfected cells; host or cells: COS-7
T1 sequence (P03372 1-595): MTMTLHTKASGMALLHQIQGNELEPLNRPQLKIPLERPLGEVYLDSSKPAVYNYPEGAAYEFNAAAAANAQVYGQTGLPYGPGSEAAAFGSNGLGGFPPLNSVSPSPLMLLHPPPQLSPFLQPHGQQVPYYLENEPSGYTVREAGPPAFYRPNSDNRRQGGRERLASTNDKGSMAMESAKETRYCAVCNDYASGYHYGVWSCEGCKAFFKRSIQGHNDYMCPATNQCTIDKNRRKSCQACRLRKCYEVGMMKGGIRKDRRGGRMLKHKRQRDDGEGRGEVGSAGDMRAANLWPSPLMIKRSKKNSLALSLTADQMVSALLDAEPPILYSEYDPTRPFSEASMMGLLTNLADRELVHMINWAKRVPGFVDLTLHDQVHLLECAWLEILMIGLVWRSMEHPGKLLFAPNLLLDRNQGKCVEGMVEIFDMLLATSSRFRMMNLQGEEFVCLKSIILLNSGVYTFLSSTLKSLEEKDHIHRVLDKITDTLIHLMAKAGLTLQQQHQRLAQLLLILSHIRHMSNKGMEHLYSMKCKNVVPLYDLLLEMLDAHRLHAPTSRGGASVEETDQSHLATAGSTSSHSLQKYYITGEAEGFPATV
Put plainly: reporter assay (luciferase) in COS-7 cells transfected with human ERα. The note with it: for EC50: COS-7 cells, 24 h with compound, luciferase, read-out: EC50 of tested ligands in the reporter assays, ER α; for ligand selectivity for ERα in the reporter assays: ratio of relative activities of ERα and ERβ, E2 = 1.00. As for the experimental part: (§1) The activity of some of the selected novel ligands of estrogen receptors was determined in reporter assays with the COS-7 cells. The reporter assay has an advantage over a classical determination of the ligand binding affinity for the receptor because in the case of steroid hormone receptors the high affinity of the ligand for the receptor doesn't always result in the equally high potency of activating the transcription via the receptor. The COS-7 cell line provides a significant advantage for this type of experiment, since it doesn't express endogenous ERα or ERβ at significant levels, and therefore it is highly suitable for the reporter assays. In addition, these compounds were also tested in the reporter assays with HEK293 cell-line.
(§2) COS-7 cells were transfected with the expression vector encoding human ERα or ERβ and with the reporter vector containing one estrogen responsive element followed by the minimal thymidine kinase promoter from the herpes simples virus. Luciferase was used as a reporter gene. The cells were seeded in a white 96-well plate after transfection, and were further cultivated in the DMEM medium without phenol red containing 2 mM glutamine, 20 mM Hepes, pH 7.5, 5 μg/ml insulin, 5 μg/ml human transferine, 100 μg/m1 bovine serum albumin (BSA). Serially diluted compounds in DMSO were added to cells 24 hours after transfection, and after the next 24 hours the luciferase activity was measured using the commercial STEADY-GLO Luciferase Assay Kit (Promega) according to the manufacturer's instructions. The luminescence was measured using the combined spectrophotometer ENVISION (PerkinElmer) with 1 s signal integration. […] The ligand selectivity for the given receptor was calculated as a ratio of relative activities of ERα and ERβ for the given ligand.

Data set [3] deals with T2, human ERβ (Homo sapiens, UniProt Q92731).
T2 construct: expressed in transfected cells; host or cells: COS-7
Briefly: reporter assay (luciferase) in COS-7 cells transfected with human ERβ. The following applies: for EC50: COS-7 cells, 24 h with compound, luciferase, read-out: EC50 of tested ligands in the reporter assays, ER β; for ligand selectivity for ERβ in the reporter assays: ratio of relative activities of ERα and ERβ, E2 = 1.00. As to the method:
as §1, §2

T2 sequence (Q92731 whole entry): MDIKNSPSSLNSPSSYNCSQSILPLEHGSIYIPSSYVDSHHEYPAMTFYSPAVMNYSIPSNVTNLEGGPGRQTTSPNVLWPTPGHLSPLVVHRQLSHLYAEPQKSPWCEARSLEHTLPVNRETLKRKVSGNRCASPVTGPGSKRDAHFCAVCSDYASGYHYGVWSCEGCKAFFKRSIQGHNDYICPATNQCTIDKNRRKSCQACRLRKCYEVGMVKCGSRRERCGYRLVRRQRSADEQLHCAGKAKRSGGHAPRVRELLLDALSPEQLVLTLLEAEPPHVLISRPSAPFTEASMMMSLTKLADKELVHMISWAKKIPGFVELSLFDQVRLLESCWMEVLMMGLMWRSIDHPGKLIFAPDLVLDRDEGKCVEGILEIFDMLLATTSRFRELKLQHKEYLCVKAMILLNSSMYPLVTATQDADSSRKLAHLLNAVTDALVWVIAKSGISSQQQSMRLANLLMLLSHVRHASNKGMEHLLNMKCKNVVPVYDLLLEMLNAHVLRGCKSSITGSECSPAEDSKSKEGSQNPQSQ

With `C[C@]12CC[C@@H]3c4ccc(O)cc4CC[C@H]3[C@@H]1CC[C@@H]2O` [Ligand E2, estradiol, reference compound], the “toxic effect on MCF-7 cells” value in data set [1] (high concentrations of ligands (1-10 μM)) is recorded as “toxic effect”.

Take `CCOC(=O)C1(C(=O)OCC)Cc2ccc([C@]3(O)CC[C@H]4[C@@H]5CCc6cc(O)ccc6[C@H]5CC[C@@]43C)cc2C1` [PN202, 17α[2,2-Bis(ethoxycarbonyl)-1,3-dihydro-2H-inden-5-yl]-estradiol]: the “proliferation effect on MCF-7 cells” value in data set [1] was “comparable to estradiol”. In addition, in data set [2], the EC50 (commonly the midpoint of the concentration-response curve) was determined as 3.85 nM and the “ligand selectivity for ERα in the reporter assays” value (“ligand selectivity for ERα” below) was 1.83. Further, in data set [3], the concentration for a half-maximal effect (EC50) came out at 19.3 nM and the “ligand selectivity for ERβ in the reporter assays” value worked out at 0.55.

For the compound `CCOC(=O)C1(C(C)=O)Cc2ccc([C@]3(O)CC[C@H]4[C@@H]5CCc6cc(O)ccc6[C@H]5CC[C@@]43C)cc2C1` (stereo partly drawn) [PN207, 17α-[2-Acetyl-2-(ethoxycarbonyl)-1,3-dihydro-2H-inden-5-yl]-estradiol], the EC50 in data set [3] was 14.5 nM.

`C[C@]12CC[C@@H]3c4ccc(O)cc4CC[C@H]3[C@@H]1CC[C@@]2(O)c1ccc2c(c1)CCC2` [PN214, 17α-(1,3-Dihydro-2H-inden-5-yl)-estradiol]: the “proliferation effect on MCF-7 cells” value in data set [1] was “no activity”. The “stimulation of ERα in the reporter assays” value in data set [2] (1 nM) is on record as “doesn't stimulate ERα”. Further, the EC50 in data set [2] was found to be 21.1 nM; in data set [3], 1.08 nM. For the same compound, in data set [2], the “ligand selectivity for ERα” value turned out to be 0.02.

Take `CC(=O)C1(C(C)=O)Cc2ccc([C@]3(O)CC[C@H]4[C@@H]5CCc6cc(O)ccc6[C@H]5CC[C@@]43C)cc2C1` [PN228, 17α-(2,2-Diacetyl-1,3-dihydro-2H-inden-5-yl)-estradiol]: in data set [2], the EC50 worked out at 19 nM and the “ligand selectivity for ERα” value is given as 1.16. In addition, in data set [3], the EC50 was found to be 60.4 nM and the “ligand selectivity for ERβ in the reporter assays” value turned out to be 0.86.

Turning to `Cc1ccc(S(=O)(=O)N2Cc3ccc([C@]4(O)CC[C@H]5[C@@H]6CCc7cc(O)ccc7[C@H]6CC[C@@]54C)cc3C2)cc1` [PN229, 17α-(1,3-Dihydro-2-tosyl-2H-indol-5-yl)-estradiol], in data set [3], the EC50 came to 62.7 nM.

For the compound `CCOC(=O)C1(C#N)Cc2ccc([C@]3(O)CC[C@H]4[C@@H]5CCc6cc(O)ccc6[C@H]5CC[C@@]43C)cc2C1` (stereo partly drawn) [PN233, 17α-[2-Cyano-2-(ethoxycarbonyl)-1,3-dihydro-2H-inden-5-yl]-estradiol], the EC50 in data set [3] turned out to be 12.8 nM.
